According to patent publication US10722520B2, “Heterocyclic compounds and their use in preventing or treating bacterial infections” (MUTABILIS, priority 2016, dated 2020):

Experiments:
E. coli UFR39 = experiment: MIC of compound alone, broth microdilution; type: cell-based; details: Escherichia coli, UFR39, read-out: MIC CAZ alone
Procedure, shortened: (§1)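 Step one, log-phase suspension set to 5×10^5 cfu/mL final in CA-MHB. Step two, incubation at 35° C under ambient air for 16-20 h. Step three, visual reading of the lowest growth-free concentration as MIC.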

OXA-48 = OXA-48 (Klebsiella pneumoniae, UniProt Q6XEC0); details: read-out: IC50 β-lactamase OXA-48; class (D); nitrocefin 200 μM, 30-min pre-incubation, enzyme 0.3 nM
KPC-2 = KPC-2 (Klebsiella pneumoniae, UniProt Q9F663); details: read-out: IC50 β-lactamase KPC-2; class (A); nitrocefin 200 μM, 30-min pre-incubation, enzyme 1 nM
K. pneumoniae 6299 [1] = experiment: MIC of ceftazidime (CAZ) at fixed concentration of compound (synergy), broth microdilution; type: cell-based; details: strain 6299; MIC of CAZ, compound fixed at 4 μg/mL
Procedure, shortened: as §1

E. cloacae P99 [2] = experiment: as above; type: cell-based; details: strain P99; MIC of CAZ, compound fixed at 4 μg/mL
Procedure, shortened: as §1

E. coli 190317 [3] = experiment: as above; type: cell-based; details: strain 190317; MIC of CAZ, compound fixed at 4 μg/mL
Procedure, shortened: as §1

P. aeruginosa CIP107051 [4] = experiment: as above; type: cell-based; details: strain CIP107051; MIC of CAZ, compound fixed at 4 μg/mL
Procedure, shortened: as §1

K. pneumoniae BAA-1898 [5] = experiment: as above; type: cell-based; details: strain BAA-1898; MIC of CAZ, compound fixed at 4 μg/mL
Procedure, shortened: as §1

TEM-1 = TEM-1 (Escherichia coli, UniProt P62593); details: read-out: IC50 β-lactamase TEM-1; class (A); nitrocefin 200 μM, 30-min pre-incubation, enzyme 0.1 nM
AmpC (P99) = AmpC (P99) (Enterobacter cloacae, UniProt P05364); details: read-out: IC50 β-lactamase AmpC (P99); class (C); nitrocefin 200 μM, 30-min pre-incubation, enzyme 0.2 nM
SHV-1 = SHV-1 (Klebsiella pneumoniae, UniProt P0AD64); details: read-out: IC50 β-lactamase SHV-1; class (A); nitrocefin 200 μM, 30-min pre-incubation, enzyme 0.075 nM
OXA-1 = OXA-1 (Escherichia coli, UniProt P13661); details: read-out: IC50 β-lactamase OXA-1; class (D); nitrocefin 200 μM, 30-min pre-incubation, enzyme 0.2 nM
K. pneumoniae 6299 [6] = experiment: MIC of compound alone, broth microdilution; type: cell-based; details: strain 6299; compound alone
Procedure, shortened: as §1

E. cloacae P99 [7] = experiment: MIC of compound alone, broth microdilution; type: cell-based; details: strain P99; compound alone
Procedure, shortened: as §1

E. coli 190317 [8] = experiment: MIC of compound alone, broth microdilution; type: cell-based; details: strain 190317; compound alone
Procedure, shortened: as §1

P. aeruginosa CIP107051 [9] = experiment: MIC of compound alone, broth microdilution; type: cell-based; details: strain CIP107051; compound alone
Procedure, shortened: as §1

K. pneumoniae BAA-1898 [10] = experiment: MIC of compound alone, broth microdilution; type: cell-based; details: strain BAA-1898; compound alone
Procedure, shortened: as §1

CMY-37 = CMY-37 (Citrobacter freundii, UniProt P05193); details: read-out: IC50 β-lactamase CMY-37; class (C); nitrocefin 200 μM, 30-min pre-incubation, enzyme 0.2 nM
CTX-M-15 = CTX-M-15 (Escherichia coli, UniProt Q9EXV5); details: read-out: IC50 β-lactamase CTX-M-15; class (A); nitrocefin 200 μM, 30-min pre-incubation, enzyme 0.4 nM
AmpC (PAE) = AmpC (PAE) (Pseudomonas aeruginosa, UniProt P24735); details: read-out: IC50 β-lactamase AmpC (PAE); class (C); nitrocefin 200 μM, 30-min pre-incubation, enzyme 0.4 nM
OXA-11 = OXA-11 (Pseudomonas aeruginosa, UniProt Q06778); details: read-out: IC50 β-lactamase OXA-11; class (D); nitrocefin 200 μM, 30-min pre-incubation, enzyme 1.2 nM
OXA-15 = OXA-15 (Pseudomonas aeruginosa, UniProt Q51574); details: read-out: IC50 β-lactamase OXA-15; class (D); nitrocefin 200 μM, 30-min pre-incubation, enzyme 0.4 nM

CC(C)(O/N=C(\C(=O)N[C@@H]1C(=O)N2C(C(=O)[O-])=C(C[n+]3ccccc3)CS[C@H]12)c1csc(N)n1)C(=O)O [CAZ, ceftazidime, reference compound]
MIC (E. coli UFR39): > 1020 µg/mL

O=C([O-])CCc1cn(C2=CC3CN(C2)C(=O)N3OS(=O)(=O)[O-])nn1.[Na+].[Na+] (stereo not shown) [Example 65, disodium [3-[4-(propanoate)triazol-1-yl]-7-oxo-1,6-diazabicyclo[3.2.1]oct-3-en-6-yl]sulfate]
IC50 (OXA-48): 0.0008 µM | IC50 (KPC-2): 0.006 µM | MIC combination of CAZ and compounds of the invention at 4 μg/mL (K. pneumoniae 6299 [1]): 2 µg/mL | MIC combination of CAZ and compounds of the invention at 4 μg/mL (E. cloacae P99 [2]): 8 µg/mL | MIC combination of CAZ and compounds of the invention at 4 μg/mL (E. coli 190317 [3]): 0.5 µg/mL | MIC combination of CAZ and compounds of the invention at 4 μg/mL (P. aeruginosa CIP107051 [4]): 8 µg/mL | MIC combination of CAZ and compounds of the invention at 4 μg/mL (K. pneumoniae BAA-1898 [5]): 64 µg/mL | IC50 (TEM-1): 0.00027 µM | IC50 (AmpC (P99)): 0.011 µM | IC50 (SHV-1): 0.0028 µM | IC50 (OXA-1): 0.053 µM | MIC compounds of the invention alone (K. pneumoniae 6299 [6]): 32 µg/mL | MIC compounds of the invention alone (E. cloacae P99 [7]): 32 µg/mL | MIC compounds of the invention alone (E. coli 190317 [8]): 32 µg/mL | MIC compounds of the invention alone (P. aeruginosa CIP107051 [9]): >32 µg/mL | MIC compounds of the invention alone (K. pneumoniae BAA-1898 [10]): 32 µg/mL | IC50 (CMY-37): 0.013 µM | IC50 (CTX-M-15): 0.00096 µM | IC50 (AmpC (PAE)): 0.49 µM | IC50 (OXA-11): 0.27 µM | IC50 (OXA-15): 0.0067 µM

CN(C)C.NC(=O)CCc1nccn1C1=CC2CN(C1)C(=O)N2OS(=O)(=O)O (stereo not shown) [Example 73, trimethylammonium [3-[2-(3-amino-3-oxo-propyl)imidazol-1-yl]-7-oxo-1,6-diazabicyclo[3.2.1]oct-3-en-6-yl]sulfate]
IC50 (OXA-48): 0.0037 µM | IC50 (KPC-2): 0.078 µM | MIC combination of CAZ and compounds of the invention at 4 μg/mL (K. pneumoniae 6299 [1]): 4 µg/mL | MIC combination of CAZ and compounds of the invention at 4 μg/mL (E. cloacae P99 [2]): 4 µg/mL | MIC combination of CAZ and compounds of the invention at 4 μg/mL (E. coli 190317 [3]): 0.5 µg/mL | MIC combination of CAZ and compounds of the invention at 4 μg/mL (P. aeruginosa CIP107051 [4]): 8 µg/mL | MIC combination of CAZ and compounds of the invention at 4 μg/mL (K. pneumoniae BAA-1898 [5]): 1 µg/mL | IC50 (TEM-1): 0.0019 µM | IC50 (AmpC (P99)): 0.092 µM | IC50 (SHV-1): 0.0098 µM | IC50 (OXA-1): 0.044 µM | MIC compounds of the invention alone (K. pneumoniae 6299 [6]): >32 µg/mL | MIC compounds of the invention alone (E. cloacae P99 [7]): >32 µg/mL | MIC compounds of the invention alone (E. coli 190317 [8]): >32 µg/mL | MIC compounds of the invention alone (P. aeruginosa CIP107051 [9]): >32 µg/mL | MIC compounds of the invention alone (K. pneumoniae BAA-1898 [10]): >32 µg/mL | IC50 (CMY-37): 0.086 µM | IC50 (CTX-M-15): 0.0044 µM | IC50 (AmpC (PAE)): 0.25 µM | IC50 (OXA-11): 0.087 µM | IC50 (OXA-15): 0.27 µM

O=C1N2CC(n3cc(S(=O)(=O)NCCO)cn3)=CC(C2)N1OS(=O)(=O)[O-].[Na+] (stereo not shown) [Example 74, sodium [3-[4-(2-hydroxyethylsulfamoyl)pyrazol-1-yl]-7-oxo-1,6-diazabicyclo[3.2.1]oct-3-en-6-yl]sulfate]
IC50 (OXA-48): 0.0029 µM | IC50 (KPC-2): 0.003 µM | MIC combination of CAZ and compounds of the invention at 4 μg/mL (K. pneumoniae 6299 [1]): ≤0.25 µg/mL | MIC combination of CAZ and compounds of the invention at 4 μg/mL (E. cloacae P99 [2]): 0.5 µg/mL | MIC combination of CAZ and compounds of the invention at 4 μg/mL (E. coli 190317 [3]): ≤0.25 µg/mL | MIC combination of CAZ and compounds of the invention at 4 μg/mL (P. aeruginosa CIP107051 [4]): 8 µg/mL | MIC combination of CAZ and compounds of the invention at 4 μg/mL (K. pneumoniae BAA-1898 [5]): 0.25 µg/mL | IC50 (TEM-1): 0.00034 µM | IC50 (AmpC (P99)): 0.0095 µM | IC50 (SHV-1): 0.0022 µM | IC50 (OXA-1): 0.022 µM | MIC compounds of the invention alone (K. pneumoniae 6299 [6]): 16 µg/mL | MIC compounds of the invention alone (E. cloacae P99 [7]): 16 µg/mL | MIC compounds of the invention alone (E. coli 190317 [8]): 8 µg/mL | MIC compounds of the invention alone (P. aeruginosa CIP107051 [9]): >32 µg/mL | MIC compounds of the invention alone (K. pneumoniae BAA-1898 [10]): 16 µg/mL | IC50 (CMY-37): 0.025 µM | IC50 (CTX-M-15): 0.0011 µM | IC50 (AmpC (PAE)): 0.11 µM | IC50 (OXA-11): 0.02 µM | IC50 (OXA-15): 0.048 µM

O=C1N2CC(n3ccc(-c4ncco4)n3)=CC(C2)N1OS(=O)(=O)[O-].[Na+] (stereo not shown) [Example 78]
IC50 (OXA-48): 0.003 µM | IC50 (KPC-2): 0.0027 µM | MIC combination of CAZ and compounds of the invention at 4 μg/mL (K. pneumoniae 6299 [1]): 2 µg/mL | MIC combination of CAZ and compounds of the invention at 4 μg/mL (E. cloacae P99 [2]): 8 µg/mL | MIC combination of CAZ and compounds of the invention at 4 μg/mL (E. coli 190317 [3]): 0.5 µg/mL | MIC combination of CAZ and compounds of the invention at 4 μg/mL (P. aeruginosa CIP107051 [4]): 8 µg/mL | MIC combination of CAZ and compounds of the invention at 4 μg/mL (K. pneumoniae BAA-1898 [5]): 16 µg/mL | IC50 (TEM-1): 0.00037 µM | IC50 (AmpC (P99)): 0.014 µM | IC50 (SHV-1): 0.0015 µM | IC50 (OXA-1): 0.064 µM | MIC compounds of the invention alone (K. pneumoniae 6299 [6]): >32 µg/mL | MIC compounds of the invention alone (E. cloacae P99 [7]): >32 µg/mL | MIC compounds of the invention alone (E. coli 190317 [8]): >32 µg/mL | MIC compounds of the invention alone (P. aeruginosa CIP107051 [9]): >32 µg/mL | MIC compounds of the invention alone (K. pneumoniae BAA-1898 [10]): >32 µg/mL | IC50 (CMY-37): 0.029 µM | IC50 (CTX-M-15): 0.00046 µM | IC50 (AmpC (PAE)): 0.25 µM | IC50 (OXA-11): 0.0065 µM | IC50 (OXA-15): 0.024 µM
